Each block holds one molecule with its values, some of them ahead of it.
Assays:
[1] = Cytotoxicity against HFF monolayers assessed as cell growth measured after 72 hrs by luciferase reporter gene assay relative to control; format: cell-based; conditions: human, read-out: Activity
[2] = Cytotoxicity against human CMEC/D3 cells assessed as cell growth at 20 uM measured after 72 hrs by cellTiter 96 AQueous non-radioactive cell proliferation assay relative to control; format: cell-based, hCMEC/D3; conditions: read-out: Activity
[3] = Cytotoxicity against human SH-SY5Y cells assessed as cell growth at 20 uM measured after 72 hrs by cellTiter 96 AQueous non-radioactive cell proliferation assay relative to control; format: cell-based; conditions: read-out: Activity
[4] = tested on: Src (human) versus Toxoplasma gondii CDPK1; assay: Selectivity ratio of IC50 for inhibition of human Src expressed in Escherichia coli BL21 to IC50 for inhibition of Toxoplasma gondii full-length wild-type C-terminal His-tagged CDPK1 expressed in Escherichia coli BL21(DE3)V2RpAcYc-LIC+LamP; format: toxicity; conditions: read-out: Ratio IC50
[5] = molecular target: Proto-oncogene tyrosine-protein kinase Src (Homo sapiens, UniProt P12931); assay: Inhibition of human Src expressed in Escherichia coli BL21 using Abltide peptide as substrate incubated for 20 to 40 mins by ELISA
[6] = Inhibition of Toxoplasma gondii full-length C-terminal His-tagged CDPK1 G128M mutant expressed in Escherichia coli BL21(DE3)V2RpAcYc-LIC+LamP using syntide-2 peptide as substrate incubated for 20 to 40 mins by ELISA
[7] = Cytotoxicity against MDCK cells assessed as cell growth at 20 uM measured after 72 hrs by cellTiter 96 AQueous non-radioactive cell proliferation assay relative to control; format: cell-based, Canis lupus familiaris; conditions: dog, read-out: Activity
Toxoplasma gondii [8] = assay: Antiparasitic activity against Toxoplasma gondii type III CTG tachyzoites infected in HFF assessed as reduction in parasite growth; format: functional, organism-based
Toxoplasma gondii [9] = assay: Antiparasitic activity against type 2 Toxoplasma gondii ME49 tachyzoites infected in HFF assessed as reduction in parasite growth; format: functional, organism-based
[10] = Protein binding in mouse brain assessed as unbound fraction; format: ADME, tissue-based
[11] = Protein binding in mouse plasma assessed as unbound fraction at 2 uM measured after 4 hrs by LC-MS/MS analysis; format: ADME, cell-free
[12] = Inhibition of Toxoplasma gondii full-length wild-type C-terminal His-tagged CDPK1 expressed in Escherichia coli BL21(DE3)V2RpAcYc-LIC+LamP using syntide-2 peptide as substrate incubated for 20 to 40 mins by ELISA
Toxoplasma gondii [13] = assay: Antiparasitic activity against 2F clone of type 1 Toxoplasma gondii RH tachyzoites expressing beta-galactosidase infected in HFF assessed as reduction in parasite growth measured after 72 hrs by chlorophenol Red-beta-D-galactopyranoside substrate based assay; format: functional, organism-based
[14] = Half life in mouse liver microsomes at 10 uM preincubated for 10 mins followed by NADPH addition by LC-MS/MS analysis; format: ADME, Microsome; conditions: microsomes, 10 µM
[15] = Half life in human liver microsomes at 10 uM preincubated for 10 mins followed by NADPH addition by LC-MS/MS analysis; format: ADME, Microsome; conditions: for half-life at 10 µM: liver microsomes; for t1/2: microsomes, 10 µM
MDR1 = assay: Efflux ratio of apparent permeability across basolateral to apical side over apical to basolateral side in MDCK2-MDR1 cells at 2 uM measured after 150 mins by LC-MS/MS analysis; format: ADME, cell-based, Canis lupus familiaris; conditions: dog, MDCK-MDR1
[16] = Apparent permeability across apical to basolateral side in MDCK2-MDR1 cells at 2 uM measured after 150 mins by LC-MS/MS analysis; format: ADME, cell-based, Canis lupus familiaris; conditions: dog, mdck-mdr1, […]
Aldehyde oxidase = molecular target: T1, Aldehyde oxidase (Homo sapiens, UniProt Q06278); assay: Drug metabolism in human liver S9 fraction assessed as aldehyde oxidase-mediated drug metabolism by measuring rate of parent compound decay at 1 uM measured after 90 mins by LC-MS/MS analysis; format: ADME, subcellular
T1 sequence (Q06278 whole entry): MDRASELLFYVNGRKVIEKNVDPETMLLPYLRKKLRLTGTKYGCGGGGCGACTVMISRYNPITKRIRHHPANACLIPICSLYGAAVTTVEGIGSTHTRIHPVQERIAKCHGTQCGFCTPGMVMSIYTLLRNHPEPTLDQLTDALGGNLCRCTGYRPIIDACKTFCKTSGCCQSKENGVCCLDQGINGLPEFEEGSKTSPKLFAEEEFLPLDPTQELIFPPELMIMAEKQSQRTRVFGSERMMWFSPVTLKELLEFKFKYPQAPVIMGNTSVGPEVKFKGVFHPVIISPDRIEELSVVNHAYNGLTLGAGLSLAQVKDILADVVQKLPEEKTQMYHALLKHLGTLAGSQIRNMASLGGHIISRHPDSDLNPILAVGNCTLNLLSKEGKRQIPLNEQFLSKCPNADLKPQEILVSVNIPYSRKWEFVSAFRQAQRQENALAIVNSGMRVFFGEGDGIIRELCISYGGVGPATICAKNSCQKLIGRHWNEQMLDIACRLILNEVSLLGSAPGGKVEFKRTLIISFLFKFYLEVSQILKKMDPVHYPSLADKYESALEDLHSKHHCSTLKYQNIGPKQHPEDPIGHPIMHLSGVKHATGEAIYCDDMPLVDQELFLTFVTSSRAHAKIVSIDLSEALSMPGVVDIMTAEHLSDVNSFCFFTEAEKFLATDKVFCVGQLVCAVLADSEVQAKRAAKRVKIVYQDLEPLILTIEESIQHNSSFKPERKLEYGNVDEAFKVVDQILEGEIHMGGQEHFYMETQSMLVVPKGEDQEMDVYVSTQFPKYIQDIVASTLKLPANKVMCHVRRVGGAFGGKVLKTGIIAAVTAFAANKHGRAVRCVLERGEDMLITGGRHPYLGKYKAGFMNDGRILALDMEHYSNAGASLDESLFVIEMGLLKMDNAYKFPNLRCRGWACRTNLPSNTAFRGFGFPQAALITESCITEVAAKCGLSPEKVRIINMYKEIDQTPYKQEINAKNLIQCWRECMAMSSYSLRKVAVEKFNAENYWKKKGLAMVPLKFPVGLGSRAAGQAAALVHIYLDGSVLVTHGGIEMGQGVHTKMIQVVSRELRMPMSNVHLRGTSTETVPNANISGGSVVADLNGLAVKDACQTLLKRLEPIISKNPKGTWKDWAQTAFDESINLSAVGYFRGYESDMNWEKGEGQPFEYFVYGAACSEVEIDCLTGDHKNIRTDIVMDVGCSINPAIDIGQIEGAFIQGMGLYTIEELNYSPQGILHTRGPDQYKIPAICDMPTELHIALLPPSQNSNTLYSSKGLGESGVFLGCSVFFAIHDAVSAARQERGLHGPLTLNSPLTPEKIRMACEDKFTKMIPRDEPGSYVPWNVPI

[17] = Clearance in human hepatocytes assessed per million cells at 1 uM by LC-MS/MS analysis; format: ADME, cell-based, Hepatocyte
[18] = Intrinsic clearance in human liver microsomes at 10 uM preincubated for 10 mins followed by NADPH addition by LC-MS/MS analysis; format: ADME, Microsome; conditions: read-out: CLH
[19] = Kinetic solubility of the compound in pH 7.4 phosphate buffer measured after 24 hrs by UV-HPLC analysis; format: physicochemical; conditions: pH 7.4, 24 h
[20] = Cytotoxicity against human HepG2 cells assessed as cell growth at 20 uM measured after 72 hrs by cellTiter 96 AQueous non-radioactive cell proliferation assay relative to control; format: cell-based; conditions: read-out: Activity
[21] = Cytotoxicity against human Caco2 cells assessed as cell growth at 20 uM measured after 72 hrs by cellTiter 96 AQueous non-radioactive cell proliferation assay relative to control; format: cell-based, Caco-2; conditions: read-out: Activity
LCK = LCK (Homo sapiens, UniProt P06239); assay: Inhibition of wild-type human partial length LCK (R207 to P509 residues) expressed in bacterial expression system at 10 uM by Kinomescan method relative to control
[22] = molecular target: Voltage-gated inwardly rectifying potassium channel KCNH2 (Homo sapiens, UniProt Q12809); assay: Inhibition of human ERG expressed in CHOK1 cells by patch-clamp electrophysiology assay; format: cell-based, CHO-K1
[23] = Ratio of drug level in central nervous system to plasma in CD1 mouse at 10 mg/kg, po administered via gavage measured after 8 hrs by LC-MS/MS analysis; format: ADME, organism-based, CNS/Plasma; conditions: central nervous system and plasma
[24] = Half life in CD1 mouse at 3 mg/kg, iv or 10 mg/kg, po administered via gavage by LC-MS/MS analysis; format: ADME, organism-based; conditions: in vivo
[25] = Cmax in CD1 mouse at 3 mg/kg, iv or 10 mg/kg, po administered via gavage by LC-MS/MS analysis; format: ADME, organism-based; conditions: in vivo
[26] = AUC in CD1 mouse at 3 mg/kg, iv or 10 mg/kg, po administered via gavage by LC-MS/MS analysis; format: ADME, organism-based; conditions: in vivo
[27] = Oral bioavailability in CD1 mouse at 10 mg/kg administered via gavage by LC-MS/MS analysis; format: ADME, organism-based; conditions: in vivo

Sequence of Proto-oncogene tyrosine-protein kinase Src (P12931 2-536 limits assumed): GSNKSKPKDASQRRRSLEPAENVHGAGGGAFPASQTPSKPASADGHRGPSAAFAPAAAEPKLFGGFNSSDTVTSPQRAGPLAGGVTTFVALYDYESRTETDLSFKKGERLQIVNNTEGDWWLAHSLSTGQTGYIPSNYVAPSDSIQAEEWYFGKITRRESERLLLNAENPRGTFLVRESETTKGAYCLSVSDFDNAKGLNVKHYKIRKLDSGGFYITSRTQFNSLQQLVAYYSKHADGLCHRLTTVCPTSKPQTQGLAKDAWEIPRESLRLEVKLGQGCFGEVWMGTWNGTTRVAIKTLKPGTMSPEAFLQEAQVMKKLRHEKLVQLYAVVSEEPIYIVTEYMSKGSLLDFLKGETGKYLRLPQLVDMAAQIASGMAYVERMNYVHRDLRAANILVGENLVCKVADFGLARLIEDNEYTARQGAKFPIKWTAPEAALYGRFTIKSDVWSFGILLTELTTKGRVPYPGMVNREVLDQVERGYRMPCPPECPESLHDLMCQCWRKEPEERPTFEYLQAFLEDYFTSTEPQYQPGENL
Sequence of LCK (P06239 whole entry, the tested form may be a part): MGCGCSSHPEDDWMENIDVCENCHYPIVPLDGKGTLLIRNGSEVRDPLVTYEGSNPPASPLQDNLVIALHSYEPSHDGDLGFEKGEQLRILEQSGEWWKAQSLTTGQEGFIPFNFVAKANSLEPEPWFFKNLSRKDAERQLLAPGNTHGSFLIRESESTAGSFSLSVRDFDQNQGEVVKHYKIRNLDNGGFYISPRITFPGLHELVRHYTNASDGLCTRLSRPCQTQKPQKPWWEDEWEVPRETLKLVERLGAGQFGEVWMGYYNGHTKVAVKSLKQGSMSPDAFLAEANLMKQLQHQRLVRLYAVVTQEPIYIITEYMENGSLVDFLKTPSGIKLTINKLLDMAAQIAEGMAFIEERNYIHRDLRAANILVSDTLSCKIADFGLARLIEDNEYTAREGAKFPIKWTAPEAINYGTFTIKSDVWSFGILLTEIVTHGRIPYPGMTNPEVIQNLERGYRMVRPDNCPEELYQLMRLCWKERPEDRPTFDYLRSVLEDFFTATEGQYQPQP
Sequence of Voltage-gated inwardly rectifying potassium channel KCNH2 (Q12809 whole entry): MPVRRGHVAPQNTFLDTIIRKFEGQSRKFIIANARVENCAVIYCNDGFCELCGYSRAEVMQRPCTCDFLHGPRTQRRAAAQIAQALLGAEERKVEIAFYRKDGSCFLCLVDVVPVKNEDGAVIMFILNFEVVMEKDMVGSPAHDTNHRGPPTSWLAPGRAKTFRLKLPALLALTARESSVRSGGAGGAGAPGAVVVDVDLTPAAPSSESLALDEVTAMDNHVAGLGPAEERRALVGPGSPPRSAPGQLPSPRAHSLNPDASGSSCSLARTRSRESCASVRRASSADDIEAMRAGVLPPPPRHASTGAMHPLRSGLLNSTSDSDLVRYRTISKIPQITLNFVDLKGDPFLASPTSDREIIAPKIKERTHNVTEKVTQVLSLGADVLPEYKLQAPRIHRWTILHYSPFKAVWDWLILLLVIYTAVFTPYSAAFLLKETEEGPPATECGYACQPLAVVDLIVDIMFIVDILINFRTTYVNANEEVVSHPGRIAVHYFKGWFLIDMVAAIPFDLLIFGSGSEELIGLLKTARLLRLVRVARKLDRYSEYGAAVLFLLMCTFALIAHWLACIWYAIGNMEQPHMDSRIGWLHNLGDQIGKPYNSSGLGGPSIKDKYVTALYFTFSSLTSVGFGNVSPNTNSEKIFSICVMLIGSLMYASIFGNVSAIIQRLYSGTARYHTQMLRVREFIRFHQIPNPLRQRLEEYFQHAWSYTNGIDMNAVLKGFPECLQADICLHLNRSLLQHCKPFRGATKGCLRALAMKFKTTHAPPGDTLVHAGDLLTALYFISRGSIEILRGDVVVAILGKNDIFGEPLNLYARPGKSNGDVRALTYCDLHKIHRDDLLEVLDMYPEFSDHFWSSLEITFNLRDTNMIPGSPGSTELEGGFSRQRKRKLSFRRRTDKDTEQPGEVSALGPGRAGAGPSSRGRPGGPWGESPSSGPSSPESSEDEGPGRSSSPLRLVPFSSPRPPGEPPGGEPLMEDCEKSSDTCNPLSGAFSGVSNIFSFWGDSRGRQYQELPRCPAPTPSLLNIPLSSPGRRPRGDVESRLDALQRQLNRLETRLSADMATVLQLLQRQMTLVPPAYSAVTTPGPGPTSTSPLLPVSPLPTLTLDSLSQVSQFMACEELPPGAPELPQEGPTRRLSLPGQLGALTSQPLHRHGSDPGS

SMILES: CO[C@@]12[C@H](COC(N)=O)C3=C(C(=O)C(C)=C(N)C3=O)N1C[C@@H]1N[C@@H]12 [MITOMYCIN]
viability at 72 h [1]: 25.8% | viability at 72 h, 20 µM [2]: 5% | viability at 72 h, 20 µM [3]: 0%

SMILES: Nc1ncnc2c1c(Oc1cc(C(F)(F)F)ccn1)nn2[C@@H]1CCCC[C@H]1O
selectivity ratio [4]: > 1000 | IC50 [5]: > 20000 nM | IC50 [6]: > 20000 nM | viability at 72 h, 20 µM [7]: 77.3% | EC50 (Toxoplasma gondii [8]): 227 nM | viability at 72 h [1]: 107% | EC50 (Toxoplasma gondii [9]): 89.6 nM | fraction unbound [10]: 0.041 | Fu [11]: 24.3% | IC50 [12]: 6.6 nM | EC50 (Toxoplasma gondii [13]): 77 to 77.5 nM | t1/2 [14]: 1.1 h | half-life at 10 µM [15]: > 2.42 h | efflux ratio at […], 2 µM (MDR1): 1.23 | Papp [16]: 21.43 ×10⁻⁶ cm/s | Drug metabolism (Aldehyde oxidase): < 3.2 µL/min/mg | CLH [17]: < 6.4 µL/min/1e6 cells | CLint scaled at 10 µM [18]: < 8.6 mL/min/kg | Kinetic_solubility [19]: 92.73 µM | viability at 72 h, 20 µM [20]: 99% | viability at 72 h, 20 µM [2]: 126% | viability at 72 h, 20 µM [21]: 100% | viability at 72 h, 20 µM [3]: 105% | inhibition at 10 µM (LCK): 45% | IC50 [22]: > 30000 nM | Kp at 8 h [23]: 0.47 | t1/2 [24]: 2.17 h | Cmax [25]: 620 ng/mL | AUC [26]: 1100 ng·h/mL | bioavailability [27]: 48.9%

SMILES: Nc1ncnc2c1c(Oc1cc(Cl)ccn1)nn2C1CCC(F)(F)CC1
IC50 [12]: 35 nM | EC50 (Toxoplasma gondii [13]): 119 nM | t1/2 [14]: 0.383 h | half-life at 10 µM [15]: > 2.42 h

SMILES: Nc1ncnc2c1c(Oc1cc(C(F)(F)F)ccn1)nn2[C@H]1CC[C@@H](CO)CC1
IC50 [12]: 15 nM | EC50 (Toxoplasma gondii [13]): 70 nM | t1/2 [14]: 0.108 h | t1/2 [15]: 1.6 h

t1/2 [14]: 0.617 h | t1/2 [15]: 1.4 h
SMILES: CC(C)(C)n1nc(Oc2cc(O)ccn2)c2c(N)ncnc21
IC50 [12]: 14 nM | EC50 (Toxoplasma gondii [13]): 17 nM

SMILES: Nc1ncnc2c1c(Oc1cccc(Cl)c1)nn2[C@H]1C[C@H](F)C1
IC50 [12]: 25 nM | EC50 (Toxoplasma gondii [13]): 498 nM | t1/2 [14]: 0.065 h | t1/2 [15]: 0.153 h

t1/2 [14]: 1.4 h | half-life at 10 µM [15]: > 2.42 h
SMILES: Nc1ncnc2c1c(Oc1cc(C(F)(F)F)ccn1)nn2[C@@H]1CC[C@H](N)C1
IC50 [12]: 42 nM | EC50 (Toxoplasma gondii [13]): 134 nM

t1/2 [14]: 0.767 h | half-life at 10 µM [15]: > 2.42 h
SMILES: CC(C)(C)n1nc(Oc2cc(C#N)ccn2)c2c(N)ncnc21
IC50 [12]: 18 nM | EC50 (Toxoplasma gondii [13]): 112 nM

SMILES: Nc1ncnc2c1c(Oc1cc(C(F)(F)F)ccn1)nn2[C@H]1C[C@H](F)C1
IC50 [12]: 10 nM | EC50 (Toxoplasma gondii [13]): 189 nM | t1/2 [14]: 0.883 h | t1/2 [15]: 2.03 h

SMILES: Nc1ncnc2c1c(Oc1cc(C(F)(F)F)ccn1)nn2[C@H]1CC[C@@H](O)CC1
IC50 [12]: 19 nM | EC50 (Toxoplasma gondii [13]): 38 nM | t1/2 [14]: 0.45 h | half-life at 10 µM [15]: > 2.42 h

SMILES: Nc1ncnc2c1c(Oc1cc(Cl)ccn1)nn2[C@H]1C[C@@H](O)C1
IC50 [12]: 18 nM | EC50 (Toxoplasma gondii [13]): 143 nM | t1/2 [14]: 0.7 h | half-life at 10 µM [15]: > 2.42 h

Source: ChEMBL document CHEMBL4602732, “Optimizing Pyrazolopyrimidine Inhibitors of Calcium Dependent Protein Kinase 1 for Treatment of Acute and Chronic Toxoplasmosis” (J Med Chem, 2020)
